Key:
[1] = In vitro stability in liver microsome; format: in vitro ADME; details: human liver microsome 0.5 mg/mL, NADPH, 37° C.
Protocol: Liver microsome incubation samples (species: human, monkey, rat, and mouse) were prepared by mixing a PBS buffer (pH=7.4), a liver microsome solution (0.5 mg/mL), a test compound, and an NADPH+MgCl2 solution and incubated at 37° C. and 300 rpm for 1 h. Zero-hour samples were prepared by mixing a PBS buffer (pH=7.4), a liver microsome solution (0.5 mg/mL), and a test compound. An acetonitrile solution containing an internal standard was added to the samples, and supernatants were prepared by protein precipitation, diluted, and then assayed by LC/MS/MS.

LNCaP cells = assay: Assay on inhibitory activity for LNCaP cell proliferation (CCK-8); format: cell-based; details: Homo sapiens, 168 h incubation
Procedure, shortened: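 Cells seeded at 1×10^5 cells/mL in phenol red-free 1640 with 2% CSS-FBS, treated at final 10000 nM-0.61 nM in duplicate. After 168 h incubation, viability read with CCK-8.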

AR in VCaP cells = molecular target: T1, AR in VCaP cells (Homo sapiens, UniProt P10275); assay: Assay on degradation activity for AR in VCaP cells (HTRF human androgen receptor detection kit); format: cell-based; details: 24 h incubation
T1 construct: Assay on Degradation Activity for AR in VCaP Cells; endogenous in cells; host or cells: VCaP cells
T1 sequence (P10275 1-920): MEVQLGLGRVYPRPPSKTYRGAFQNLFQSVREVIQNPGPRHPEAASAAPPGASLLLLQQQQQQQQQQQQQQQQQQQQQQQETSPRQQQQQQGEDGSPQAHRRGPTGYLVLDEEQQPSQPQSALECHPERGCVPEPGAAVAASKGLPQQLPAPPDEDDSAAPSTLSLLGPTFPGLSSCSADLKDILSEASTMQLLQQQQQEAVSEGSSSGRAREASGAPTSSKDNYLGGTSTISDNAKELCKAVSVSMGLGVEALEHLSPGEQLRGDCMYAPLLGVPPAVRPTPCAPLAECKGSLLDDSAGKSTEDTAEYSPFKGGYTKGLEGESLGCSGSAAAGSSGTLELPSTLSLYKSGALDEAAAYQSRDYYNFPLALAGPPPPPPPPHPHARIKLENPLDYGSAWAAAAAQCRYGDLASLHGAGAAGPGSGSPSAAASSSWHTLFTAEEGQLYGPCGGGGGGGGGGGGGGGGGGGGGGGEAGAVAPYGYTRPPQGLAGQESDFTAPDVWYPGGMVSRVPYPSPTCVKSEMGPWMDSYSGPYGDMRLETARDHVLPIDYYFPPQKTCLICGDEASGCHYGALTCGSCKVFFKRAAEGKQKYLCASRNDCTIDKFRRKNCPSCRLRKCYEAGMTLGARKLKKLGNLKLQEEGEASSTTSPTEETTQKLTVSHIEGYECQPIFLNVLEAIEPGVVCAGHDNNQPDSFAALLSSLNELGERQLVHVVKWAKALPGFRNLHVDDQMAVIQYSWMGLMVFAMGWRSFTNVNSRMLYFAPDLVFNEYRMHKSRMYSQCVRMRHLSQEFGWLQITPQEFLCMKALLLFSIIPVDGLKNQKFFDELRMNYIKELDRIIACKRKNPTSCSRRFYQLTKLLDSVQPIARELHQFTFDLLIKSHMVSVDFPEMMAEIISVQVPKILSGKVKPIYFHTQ
Procedure, shortened: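 VCaP cells seeded overnight in 2% CSS-FBS phenol red-free DMEM, then treated 24 h with compound at 1000 nM–0.977 nM final, in duplicate. Lysates probed with AR Eu cryptate/d2 antibody HTRF (2 h, 25° C., 665/620 nm); DC50 and Dmax from four-parameter dose-response fits.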

Structure (SMILES): N#Cc1ccc(O[C@H]2CC[C@H](NC(=O)c3ccc(C4CCN(C5CN(c6cc7onc(C8CCC(=O)NC8=O)c7c7ccccc67)C5)CC4)nn3)CC2)cc1Cl (stereo partly drawn) [Compound 48]
- Human liver microsome Residuals at 60 min (%) [1]: >85%
- IC50 (LNCaP cells): < 1000 nM
- DC50 (AR in VCaP cells): ≤ 1 nM

Reference: patent US20260035384A1, “COMPOUND CONTAINING CYCLOHEXYL” (CHIA TAI TIANQING PHARMACEUTICAL GROUP CO., LTD., priority 2022, published 2026)
